# Several values for one entry are separate records, joined by “and”; a condition that tells them apart may be missing. Equal values may be shown once.
# Key:
# Assay type in all cases: in vivo, human
# subjects [1] = assay: VAS-Ability to tolerate stress; design: VAS-Ability to tolerate stress rating, Mean / VAS-Ability to tolerate stress changes from baseline, Mean Difference ± SE / VAS-Ability to tolerate stress area under the curve, Mean Difference ± SE / VAS-Ability to tolerate stress area under the curve, Mean: scale not given here
# Procedure: (§1) The inventors have discovered various compositions and methods of improving various indices of neurological and neuroenergetic functions by administering 100 mg (once daily) dosages of DYNAMINE™ (dosage between 1.0 and 1.4 mg/kg) as described in the following:
# (§2) All neuroenergetic tests as listed below were performed and data were collected after 0 and 4 days of assigned supplements (with acute effects also measured at day 4 over 180 minutes):
# (§3) All VAS Measurement (Energy, Sustained Energy, Mental Stamina, Ability to Focus, Ability to Concentrate, Motivation to Accomplish Difficult Tasks, Drive, Vigor, Level of Positive Outlook, Mood, Feelings of Well-Being, Tolerate Stress); Day 0: Two tests were completed. The average of both scores was computed and this value was used in all statistical analysis. Day 4 (0 minutes after ingesting dose #4): Two tests were completed. The average of both scores was computed and this value was used in all statistical analysis. Day 4 (60, 120, and 180 minutes after ingesting dose #4): One test was completed at each time point.
# (§4) Neuroenergic parameters are inherently subjective, nevertheless significant in human behavior and well-being. To allow for a standardization among different subjects, the following experiments were performed using a visual analog scale using anchor statements (lowest possible/highest possible) in which subjects were asked to rate their subjective experience with respect to the specific neuroenergic parameters tested.
# VAS-Ability to tolerate stress: In this subjective test, subjects were asked to rate their personal level of energy on a VAS scale using the prompt of “My ability to tolerate stress right now is . . . ” (with rating lowest possible to highest possible)”. Results were collected as noted above and Table 37 provides exemplary results for Day 0 versus Day 4 ratings, whereas Table 38 provides exemplary acute results measured at Day 4 over a duration of 180 minutes.
# subjects [2] = assay: VAS-Mood; design: VAS-Mood rating, Mean / VAS-Mood changes from baseline, Mean Difference ± SE / VAS-Mood area under the curve, Mean Difference ± SE / VAS-Mood area under the curve, Mean: scale not given here
# Procedure: as §1, §2, §3, §4
# VAS-Mood: In this subjective test, subjects were asked to rate their personal level of energy on a VAS scale using the prompt of “My mood right now is . . . ” (with rating lowest possible to highest possible)”. Results were collected as noted above and Table 31 provides exemplary results for Day 0 versus Day 4 ratings, whereas Table 32 provides exemplary acute results measured at Day 4 over a duration of 180 minutes.
# subjects [3] = assay: VAS-Ability to focus; design: VAS-Ability to focus rating, Mean / VAS-Ability to focus changes from baseline, Mean Difference ± SE / VAS-Ability to focus area under the curve, Mean Difference ± SE / VAS-Ability to focus area under the curve, Mean: scale not given here
# Procedure: as §1, §2, §3, §4
# VAS-Ability to focus: In this subjective test, subjects were asked to rate their personal level of energy on a VAS scale using the prompt of “My ability to focus right now is . . . ” (with rating lowest possible to highest possible)”. Results were collected as noted above and Table 13 provides exemplary results for Day 0 versus Day 4 ratings, whereas Table 14 provides exemplary acute results measured at Day 4 over a duration of 180 minutes.
# subjects [4] = assay: VAS-Mental Stamina; design: VAS-Mental Stamina rating, Mean / VAS-Mental Stamina changes from baseline, Mean Difference ± SE / VAS-Mental Stamina area under the curve, Mean Difference ± SE / VAS-Mental Stamina area under the curve, Mean: scale not given here
# Procedure: as §1, §2, §3, §4
# VAS-Mental Stamina: In this subjective test, subjects were asked to rate their personal level of energy on a VAS scale using the prompt of “My level of mental stamina right now is . . . ” (with rating lowest possible to highest possible)”. Results were collected as noted above and Table 10 provides exemplary results for Day 0 versus Day 4 ratings, whereas Table 11 provides exemplary acute results measured at Day 4 over a duration of 180 minutes.
# [5] = 100 mg once daily, Day 4, 0-180 min
# [6] = 100 mg once daily, Day 4, 0-180 min, vs Group A (placebo)
# [7] = 100 mg once daily, Day 4, 0 min after dose #4
# [8] = 100 mg once daily, Day 4, 60 min-0 min, vs Group A (placebo)
# [9] = 100 mg once daily, Day 4, 60 min after dose #4
# [10] = 100 mg once daily, Day 4, 120 min-0 min, vs Group A (placebo)
# [11] = 100 mg once daily, Day 4, 120 min after dose #4
# [12] = 100 mg once daily, Day 4, 180 min-0 min, vs Group A (placebo)
# [13] = 100 mg once daily, Day 4, 180 min after dose #4
smiles,measurement,setting,value
"COc1nc2c(c(=O)n1C)n(C)c(=O)n2C [methylliberine, 2-methoxy-1,7,9-trimethylpurine-6,8-dione]","VAS-Ability to tolerate stress area under the curve, Mean",subjects [1]; [5],1075
same,"VAS-Ability to tolerate stress area under the curve, Mean Difference ± SE",subjects [1]; [6],45.5 ± 45.6
same,"VAS-Ability to tolerate stress area under the curve, effect size d",subjects [1]; [6],−0.13
same,"VAS-Ability to tolerate stress rating, Mean",subjects [1]; [7],5.7
same,"VAS-Ability to tolerate stress changes from baseline, Mean Difference ± SE",subjects [1]; [8],0.17 ± 0.18
same,"VAS-Ability to tolerate stress changes from baseline, effect size d",subjects [1]; [8],0.21
same,"VAS-Ability to tolerate stress rating, Mean",subjects [1]; [9],6.2
same,"VAS-Ability to tolerate stress changes from baseline, Mean Difference ± SE",subjects [1]; [10],0.28 ± 1.42
same,"VAS-Ability to tolerate stress changes from baseline, effect size d",subjects [1]; [10],0.27
same,"VAS-Ability to tolerate stress rating, Mean",subjects [1]; [11],6.4
same,"VAS-Ability to tolerate stress changes from baseline, Mean Difference ± SE",subjects [1]; [12],0.67 ± 0.30
same,"VAS-Ability to tolerate stress changes from baseline, effect size d",subjects [1]; [12],0.52 and 0.54
same,"VAS-Ability to tolerate stress rating, Mean",subjects [1]; [13],6.4
same,"VAS-Ability to tolerate stress rating, Mean",subjects [1]; Day 0 (before supplementation),6.1
same,"VAS-Mood area under the curve, Mean",subjects [2]; [5],1220
same,"VAS-Mood area under the curve, Mean Difference ± SE",subjects [2]; [6],37.4 ± 250.7
same,"VAS-Mood area under the curve, effect size d",subjects [2]; [6],0.12
same,"VAS-Mood rating, Mean",subjects [2]; [7],6.1
same,"VAS-Mood changes from baseline, Mean Difference ± SE",subjects [2]; [8],0.38 ± 0.18
same,"VAS-Mood changes from baseline, effect size d",subjects [2]; [8],0.43
same,"VAS-Mood rating, Mean",subjects [2]; [9],6.7
same,"VAS-Mood changes from baseline, Mean Difference ± SE",subjects [2]; [10],0.45 ± 0.27
same,"VAS-Mood changes from baseline, effect size d",subjects [2]; [10],0.41
same,"VAS-Mood rating, Mean",subjects [2]; [11],7.0
same,"VAS-Mood changes from baseline, Mean Difference ± SE",subjects [2]; [12],0.72 ± 0.30
same,"VAS-Mood changes from baseline, effect size d",subjects [2]; [12],0.65
same,"VAS-Mood rating, Mean",subjects [2]; [13],7.1
same,"VAS-Mood rating, Mean",subjects [2]; Day 0 (before supplementation),6.5
same,"VAS-Ability to focus area under the curve, Mean",subjects [3]; [5],1155
same,"VAS-Ability to focus area under the curve, Mean Difference ± SE",subjects [3]; [6],55.3 ± 40.9
same,"VAS-Ability to focus area under the curve, effect size d",subjects [3]; [6],0.17
same,"VAS-Ability to focus rating, Mean",subjects [3]; [7],6.0
same,"VAS-Ability to focus changes from baseline, Mean Difference ± SE",subjects [3]; [8],0.35 ± 0.30
same,"VAS-Ability to focus changes from baseline, effect size d",subjects [3]; [8],0.34
same,"VAS-Ability to focus rating, Mean",subjects [3]; [9],6.4
same,"VAS-Ability to focus changes from baseline, Mean Difference ± SE",subjects [3]; [10],0.20 ± 0.26
same,"VAS-Ability to focus changes from baseline, effect size d",subjects [3]; [10],0.20
same,"VAS-Ability to focus rating, Mean",subjects [3]; [11],6.5
same,"VAS-Ability to focus changes from baseline, Mean Difference ± SE",subjects [3]; [12],0.44 ± 0.24
same,"VAS-Ability to focus changes from baseline, effect size d",subjects [3]; [12],0.38
same,"VAS-Ability to focus rating, Mean",subjects [3]; [13],6.7
same,"VAS-Ability to focus rating, Mean",subjects [3]; Day 0 (before supplementation),5.9
same,"VAS-Mental Stamina area under the curve, Mean",subjects [4]; [5],1133
same,"VAS-Mental Stamina area under the curve, Mean Difference ± SE",subjects [4]; [6],59.2 ± 46.2
same,"VAS-Mental Stamina area under the curve, effect size d",subjects [4]; [6],0.18
same,"VAS-Mental Stamina rating, Mean",subjects [4]; [7],6.0
same,"VAS-Mental Stamina changes from baseline, Mean Difference ± SE",subjects [4]; [8],−0.12 ± 0.22
same,"VAS-Mental Stamina changes from baseline, effect size d",subjects [4]; [8],−0.15
same,"VAS-Mental Stamina rating, Mean",subjects [4]; [9],6.3
same,"VAS-Mental Stamina changes from baseline, Mean Difference ± SE",subjects [4]; [10],−0.21 ± 0.28
same,"VAS-Mental Stamina changes from baseline, effect size d",subjects [4]; [10],−0.21
same,"VAS-Mental Stamina rating, Mean",subjects [4]; [11],6.3
same,"VAS-Mental Stamina changes from baseline, Mean Difference ± SE",subjects [4]; [12],0.16 ± 0.24
same,"VAS-Mental Stamina changes from baseline, effect size d",subjects [4]; [12],0.15
same,"VAS-Mental Stamina rating, Mean",subjects [4]; [13],6.6
same,"VAS-Mental Stamina rating, Mean",subjects [4]; Day 0 (before supplementation),5.7

# Source: patent publication US20260256794A1, “Oral Dynamine Formulations and Methods Therefor” (Ortho-Nutra, LLC, priority 2023, published 2026)
